Assay results published in ChEMBL document CHEMBL5729275 (2022).

assay: RSV-A Assay : Hep-2 cells, (originally derived from tumors grown in irradiated-cortisonised weanling rats that had been injected with epidermoid carcinoma tissue from a person's larynx, but later found to be indistinguishable from HeLa cells by PCR DNA analysis), were used for the culturing of genotype A, “Long” strain RSV. Flasks were inoculated with RSV and viral stocks were collected once cytopathic effect (CPE) was greater than 90%. Viral stocks in 25% sucrose media were snap frozen using liquid nitrogen to increase viral stability. Viral stock titers were quantified by tissue culture infectious dose 50% (TCID50) using 8,000 cells per well and 3-fold viral dilutions across a 96-well plate, cultured for 4 days. Viral stock titers were also quantified by a plaque forming unit assay, as described elsewhere.Following extensive parameter testing, the final assay is run as follows: Hep-2 cells are seeded into the inner 60 wells of a 96-well plate at 8,000 cells per well in a volume of 50 μL using Growth Media (DMEM without phenol red, 1% L-Glut, 1% Penn/Strep, 1% nonessential amino acids, 10% heat-inactivated FBS). 2-fold serial dilutions of control and test compounds are added to the wells in duplicate in a total volume of 25 μL. Viral stock is then added to the wells at a multiplicity of infection (MOI) of 0.1 in a volume of 25 μL, bringing the total volume of each well to 100 μL. The MOI is calculated using the PFU/mL, or TCID50 if unavailable. Each 96-well plate has a control column of 6 wells with cells and virus but no compound (negative control, max CPE), a column with cells but no compound or virus (positive control, minimum CPE), and a column with no cells or virus or compound (background plate/reagent control). The control wells with cells but no virus are given an additional […], of growth media containing an equal quantity of sucrose as those wells receiving the viral stock in order to keep consistent in media and volume conditions. The outer wells of the plate are filled with 125 μL of moat media (DMEM, 1% Penn/Strep) to act as a thermal and evaporative moat around the test wells. Following a 5-day incubation period, the plates are read using ATPlite (50 uL added per well), which quantifies the amount of ATP (a measure of cell health) present in each well. Assay plates are read using the Envision luminometer.

Question: Which EC50 does the source give for `C[C@](O)(CNC(=O)c1ccc(OC2CC2)c(OC2CC2)c1)c1cc2c(c(-c3ccc(F)c(F)c3)n1)OC[C@@]2(N)C(F)(F)F` here?
Answer: < 200 nM

Question: For `COc1cnc(C(=O)NC[C@](O)(c2cc3c(c(-c4ccc(F)cc4)n2)OC[C@@]3(N)C(F)(F)F)C(F)(F)F)cc1OC`, which EC50 is on record?
Answer: > 200 nM

Question: Which EC50 does the source give for `COc1cc(C(=O)NC[C@](O)(c2cc3c(c(-c4ccc(F)cc4)n2)OC[C@@]3(N)C(F)(F)F)C(F)(F)F)ccc1OC1CC1` here?
Answer: < 200 nM

Question: Which EC50 does the source give for `COc1cc(C(=O)NC[C@](O)(c2cc3c(c(-c4ccc(F)cc4)n2)OC[C@@]3(N)C(F)(F)F)C(F)(F)F)cc(F)c1OC1CC1` here?
Answer: > 200 nM

Question: Which EC50 does the source give for `COc1cc(F)c(C(=O)NC[C@](O)(c2cc3c(c(-c4ccc(F)cc4)n2)OC[C@@]3(N)C(F)(F)F)C(F)(F)F)cc1OC` here?
Answer: > 200 nM

Question: With `COc1cc(C(=O)NC[C@](O)(c2cc3c(c(-c4ccc(F)c(Cl)c4)n2)OC[C@@]3(N)C(F)(F)F)C2CC2)ccc1OC1CC1` as the compound, how does the EC50 read?
Answer: < 200 nM

Question: For `COC(=O)N[C@@]1(C(F)(F)F)COc2c1cc([C@@](C)(O)CNC(=O)c1ccc(OC3CC3)c(OC)c1)nc2-c1ccc(F)cc1`, which EC50 is on record?
Answer: < 200 nM

Question: With `COc1cc(C(=O)NC[C@](O)(c2cc3c(c(-c4ccc(F)cc4)n2)OC[C@@]3(N)C(F)(F)F)C(F)(F)F)cc2cccnc12` as the compound, how does the EC50 read?
Answer: < 200 nM

Question: Which EC50 does the source give for `COc1cc(C(=O)NC[C@](O)(c2cc3c(c(-c4ccc(F)cc4)n2)OC[C@@]3(NC(=O)COC(C)=O)C(F)(F)F)C(F)(F)F)ccc1OC1CC1` here?
Answer: < 200 nM

Question: With `COc1cc(C(=O)NC[C@](O)(c2cc3c(c(-c4ccc(F)cc4)n2)OC[C@@]3(NC(=O)CO)C(F)(F)F)C(F)(F)F)ccc1OC1CC1` as the compound, how does the EC50 read?
Answer: < 200 nM

Question: For `COc1cc(C(=O)NC[C@](O)(c2cc3c(c(-c4ccc(F)cc4)n2)OC[C@@]3(N)C(F)(F)F)C2CC2)ccc1OC1CC1`, which EC50 is on record?
Answer: < 200 nM

Question: For `COc1cc(C(=O)NC[C@](O)(c2cc3c(c(-c4ccc(F)cc4)n2)OC[C@@]3(N)C(F)(F)F)C(F)(F)F)ccc1OCCO`, which EC50 is on record?
Answer: > 200 nM

Question: With `COc1cc(C(=O)NC[C@](O)(c2cc3c(c(-c4ccc(F)cc4)n2)OC[C@@]3(N)C(F)(F)F)C(F)(F)F)nc2ccccc12` as the compound, how does the EC50 read?
Answer: > 200 nM

Question: Which EC50 does the source give for `COc1cc(C(=O)NC[C@](C)(O)c2cc3c(c(-c4ccc(F)cc4)n2)OC[C@@]3(NS(=O)(=O)C(C)(C)C)C(F)(F)F)cc2cccnc12` here?
Answer: > 200 nM

Question: Which EC50 does the source give for `C[C@](O)(CNC(=O)c1ccc(OC2CC2)c(OC2CC2)c1)c1cc2c(c(-c3ccc(F)cc3)n1)OC[C@@]2(N)C(F)(F)F` here?
Answer: < 200 nM

Question: Which EC50 does the source give for `COc1cc(C(=O)NC[C@@](O)(c2cc3c(c(-c4ccc(F)cc4)n2)OC[C@]3(N)C(F)(F)F)C(F)(F)F)ccc1OCCO` here?
Answer: > 200 nM

Question: Which EC50 does the source give for `N[C@@]1(C(F)(F)F)COc2c1cc([C@@](O)(CNC(=O)c1ccc(OC3CC3)c(OC3CC3)c1)C1CC1)nc2-c1ccc(F)c(F)c1` here?
Answer: < 200 nM

Question: For `COc1cc(C(=O)NC[C@](O)(c2cc3c(c(-c4ccc(F)cc4)n2)OC[C@@]3(N)C(F)(F)F)C2CC2)cc2cccnc12`, which EC50 is on record?
Answer: < 200 nM

Question: For `COc1cc(C(=O)NC[C@](O)(c2cc3c(c(-c4ccc(F)cc4)n2)OC[C@]3(N)C(F)(F)F)C(F)(F)F)ccc1OCCO`, which EC50 is on record?
Answer: > 200 nM

Question: For `COc1cc(C(=O)NC[C@](O)(c2cc3c(c(-c4ccc(F)cc4)n2)OC[C@@]3(N)C(F)(F)F)C(F)(F)F)ccc1C(F)(F)F`, which EC50 is on record?
Answer: > 200 nM

Question: Which EC50 does the source give for `CC(C)(C)S(=O)(=O)N[C@@]1(C(F)(F)F)COc2c1cc([C@@](C)(O)CNC(=O)c1cc(OC3CC3)c3ncccc3c1)nc2-c1ccc(F)cc1` here?
Answer: > 200 nM

Question: With `COc1ccc(C(=O)NC[C@](O)(c2cc3c(c(-c4ccc(F)cc4)n2)OC[C@@]3(N)C(F)(F)F)C(F)(F)F)cc1OC` as the compound, how does the EC50 read?
Answer: > 200 nM

Question: Which EC50 does the source give for `N[C@@]1(C(F)(F)F)COc2c1cc([C@@](O)(CNC(=O)c1cc(OC3CC3)c3ncccc3c1)C1CC1)nc2-c1ccc(F)c(Cl)c1` here?
Answer: < 200 nM

Question: For `COc1cccc2cc(C(=O)NC[C@](O)(c3cc4c(c(-c5ccc(F)cc5)n3)OC[C@@]4(N)C(F)(F)F)C(F)(F)F)cnc12`, which EC50 is on record?
Answer: > 200 nM

Question: Which EC50 does the source give for `COc1cc(C(=O)NC[C@](C)(O)c2cc3c(c(-c4ccc(F)cc4)n2)OC[C@@]3(N)C(F)(F)F)cc2cccnc12` here?
Answer: < 200 nM

Question: With `COc1cc(C(=O)NC[C@](O)(c2cc3c(c(-c4ccc(F)cc4)n2)OC[C@]3(N)C(F)(F)F)C(F)(F)F)ccc1OC1CC1` as the compound, how does the EC50 read?
Answer: < 200 nM

Question: For `COc1cc(C(=O)NCC(C)c2cc3c(c(-c4ccc(F)c(F)c4)n2)OC[C@@]3(N)C(F)(F)F)ccc1OC1CC1` (stereo partly drawn), which EC50 is on record?
Answer: > 200 nM

Question: With `COC(=O)N[C@@]1(C(F)(F)F)COc2c1cc([C@@](O)(CNC(=O)c1ccc(OC3CC3)c(OC)c1)C(F)(F)F)nc2-c1ccc(F)cc1` as the compound, how does the EC50 read?
Answer: > 200 nM

Question: Which EC50 does the source give for `N[C@@]1(C(F)(F)F)COc2c1cc([C@@](O)(CNC(=O)c1ccc(OC3CC3)c(OC3CC3)c1)C1CC1)nc2-c1ccc(F)c(Cl)c1` here?
Answer: < 200 nM

Question: With `COc1cc(C(=O)NC[C@](C)(O)c2cc3c(c(-c4ccc(F)cc4)n2)OC[C@@]3(NC(=N)NC#N)C(F)(F)F)ccc1OC1CC1` as the compound, how does the EC50 read?
Answer: < 200 nM

Question: With `N[C@@]1(C(F)(F)F)COc2c1cc([C@@](O)(CNC(=O)c1ccc(OC3CC3)c(OC3CC3)c1)C1CC1)nc2-c1ccc(F)cc1` as the compound, how does the EC50 read?
Answer: < 200 nM

Question: For `COc1cc(C(=O)NC[C@](O)(c2cc3c(c(-c4ccc(F)cc4)n2)OC[C@@]3(N)C(F)(F)F)C(F)(F)F)ccc1OCC(C)C`, which EC50 is on record?
Answer: > 200 nM

Question: Which EC50 does the source give for `COc1cc(C(=O)NC[C@@](O)(c2cc3c(c(-c4ccc(F)cc4)n2)OC[C@@]3(N)C(F)(F)F)C(F)(F)F)ccc1OC1CC1` here?
Answer: > 200 nM

Question: Which EC50 does the source give for `N[C@@]1(C(F)(F)F)COc2c1cc([C@@](O)(CNC(=O)c1cc(OC3CC3)c3ncccc3c1)C1CC1)nc2-c1ccc(F)cc1` here?
Answer: < 200 nM

Question: Which EC50 does the source give for `COc1cc(C(=O)NC[C@](O)(c2cc3c(c(-c4ccc(F)cc4)n2)OC[C@@]3(N)C(F)(F)F)C(C)(C)C)ccc1OC1CC1` here?
Answer: > 200 nM

Question: Which EC50 does the source give for `COc1cc(C(=O)NC[C@](O)(c2cc3c(c(-c4ccc(F)c(F)c4)n2)OC[C@@]3(N)C(F)(F)F)C2CC2)ccc1OC1CC1` here?
Answer: < 200 nM

Question: With `COc1ccc2nc(C(=O)NC[C@](O)(c3cc4c(c(-c5ccc(F)cc5)n3)OC[C@@]4(N)C(F)(F)F)C(F)(F)F)cc(OC)c2c1` as the compound, how does the EC50 read?
Answer: > 200 nM

Question: For `COc1cc(C(=O)NC[C@](C)(O)c2cc3c(c(-c4ccc(F)cc4)n2)OC[C@@]3(N)C(F)(F)F)ccc1OC1CC1`, which EC50 is on record?
Answer: < 200 nM

Question: For `COc1cc(C(=O)NC[C@](O)(c2cc3c(c(-c4ccc(F)cc4)n2)OC[C@]3(N)C(F)(F)F)C(F)(F)F)cc2cccnc12`, which EC50 is on record?
Answer: < 200 nM

Question: Which EC50 does the source give for `COc1cc(C(=O)NC[C@@](O)(CF)c2cc3c(c(-c4ccc(F)cc4)n2)OC[C@@]3(N)C(F)(F)F)ccc1OC1CC1` here?
Answer: < 200 nM

Question: For `COc1cc(C(=O)NC[C@](C)(O)c2cc3c(c(-c4ccc(F)c(Cl)c4)n2)OC[C@@]3(N)C(F)(F)F)ccc1OC1CC1`, which EC50 is on record?
Answer: < 200 nM

Question: For `COc1cc(C(=O)NC[C@](C)(O)c2cc3c(c(-c4ccc(F)c(F)c4)n2)OC[C@@]3(N)C(F)(F)F)ccc1OC1CC1`, which EC50 is on record?
Answer: < 200 nM

Question: With `C[C@](O)(CNC(=O)c1ccc(OC2CC2)c(-c2cccnc2)c1)c1cc2c(c(-c3ccc(F)cc3)n1)OC[C@@]2(N)C(F)(F)F` as the compound, how does the EC50 read?
Answer: < 200 nM

Question: Which EC50 does the source give for `COCCOc1ccc(C(=O)NC[C@](O)(c2cc3c(c(-c4ccc(F)cc4)n2)OC[C@@]3(N)C(F)(F)F)C(F)(F)F)cc1OC` here?
Answer: > 200 nM

Question: With `COc1cc(C(=O)NC[C@H](O)c2cc3c(c(-c4ccc(F)cc4)n2)OC[C@@]3(N)C(F)(F)F)ccc1OC1CC1` as the compound, how does the EC50 read?
Answer: > 200 nM

Question: Which EC50 does the source give for `C[C@](O)(CNC(=O)c1cc(OC2CC2)c2ncccc2c1)c1cc2c(c(-c3ccc(F)cc3)n1)OC[C@@]2(N)C(F)(F)F` here?
Answer: < 200 nM

Question: For `COc1cc(C(=O)NC[C@@](O)(c2cc3c(c(-c4ccc(F)cc4)n2)OC[C@]3(N)C(F)(F)F)C(F)(F)F)ccc1OC1CC1`, which EC50 is on record?
Answer: > 200 nM

Question: For `C[C@](O)(CNC(=O)c1ccc(OC2CC2)c(OC2CC2)c1)c1cc2c(c(-c3ccc(F)c(Cl)c3)n1)OC[C@@]2(N)C(F)(F)F`, which EC50 is on record?
Answer: < 200 nM
